Test systems include BT-549 breast; HOP-62 NSCLC; KM12 colon; OVCAR-5 ovarian; OVCAR-8 ovarian; PC-3 prostate; SK-MEL-2 melanoma; SNB-19 CNS; TK-10 renal; UACC-62 melanoma.
What all share (assay): NCI tumour cell line growth inhibition, 48 h

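Growth conditions: 96-well plates. Treatment: test compound, 48 hours, 5 concentrations. Analysis: linear interpolation between bracketing concentrations; unreached endpoints set to highest concentration. The concentration for 50% growth inhibition is given as GI50. At the TGI there is no net growth.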 Where only a bound is given, the exact number is not on record here.

Take `Cc1ccc2c(N)c(C(=O)N[C@H]3CCc4cc(N5CC6CCC(C5)N6)ccc4C3)sc2n1`: the GI50 with BT-549 breast is 0.927 µM; in the assay with HOP-62 NSCLC it was 0.291 µM; in the assay on KM12 colon it was 0.693 µM; in the assay on OVCAR-5 ovarian, 0.47 µM; with OVCAR-8 ovarian, 0.385 µM; with PC-3 prostate, 0.676 µM. Further, the GI50 in the assay with SK-MEL-2 melanoma was 0.44 µM; in the assay on SNB-19 CNS, 0.325 µM; in the assay on TK-10 renal, 0.434 µM; in the assay with UACC-62 melanoma, 0.709 µM. Moreover, the TGI in the assay with BT-549 breast was determined as 3.06 µM; in the assay with HOP-62 NSCLC, 2.36 µM; with KM12 colon it was 3.33 µM; in the assay with OVCAR-5 ovarian it was 3 µM; in the assay with OVCAR-8 ovarian it was 2.83 µM; in the assay with SK-MEL-2 melanoma, 1.29 µM. The TGI stood at 2.49 µM in the assay with SNB-19 CNS, 3.26 µM with TK-10 renal and 3.11 µM in the assay with UACC-62 melanoma.

Regarding `Cc1ccc2c(=O)c3cccc(CC(=O)O)c3oc2c1C`, the GI50 with BT-549 breast, with HOP-62 NSCLC, in the assay with KM12 colon, in the assay on OVCAR-5 ovarian, in the assay with OVCAR-8 ovarian and with PC-3 prostate was above 100 µM in each case. Further, the GI50 with SK-MEL-2 melanoma, with SNB-19 CNS, in the assay on TK-10 renal and in the assay on UACC-62 melanoma was above 100 µM throughout. In addition, the TGI with BT-549 breast, in the assay with HOP-62 NSCLC, in the assay on KM12 colon, in the assay on OVCAR-5 ovarian, in the assay on OVCAR-8 ovarian and in the assay on PC-3 prostate was above 100 µM in each case. The TGI in the assay on SK-MEL-2 melanoma, in the assay with SNB-19 CNS, in the assay with TK-10 renal and in the assay on UACC-62 melanoma was above 100 µM in each case.

Turning to `CCOC(=O)Oc1c(OC)cc(C(=O)O[C@@H]2C[C@@H]3CN4CCc5c([nH]c6cc(OC)ccc56)[C@H]4C[C@@H]3[C@H](C(=O)OC)[C@H]2OC)cc1OC`, the GI50 in the assay with BT-549 breast is 9.08 µM; in the assay with HOP-62 NSCLC it was 11.7 µM; in the assay on KM12 colon it was 4.7 µM; in the assay with OVCAR-5 ovarian, 18 µM; in the assay on OVCAR-8 ovarian, 4.94 µM; in the assay with PC-3 prostate, 4.92 µM. Also, the GI50 was 12.1 µM with SK-MEL-2 melanoma, 5.04 µM with SNB-19 CNS, 14.7 µM in the assay with TK-10 renal and 6.89 µM with UACC-62 melanoma. In addition, the TGI with BT-549 breast turned out to be 24.1 µM; in the assay on HOP-62 NSCLC it was 25.2 µM; with KM12 colon, 17.7 µM; in the assay on OVCAR-5 ovarian, 48.1 µM; in the assay on OVCAR-8 ovarian, 21.1 µM; in the assay on PC-3 prostate it was 33.8 µM. For the same compound, the TGI came out at 28.3 µM in the assay with SK-MEL-2 melanoma, 20.9 µM in the assay with SNB-19 CNS, 42.5 µM with TK-10 renal and 20.3 µM in the assay with UACC-62 melanoma.

As to `C=C1C(=O)O[C@H]2[C@H]1CC/C(Cn1cc(-c3ccccc3)nn1)=C\CC[C@@]1(C)O[C@@H]21`, the GI50 in the assay with BT-549 breast is 2.65 µM; with HOP-62 NSCLC it was 7.41 µM; in the assay with KM12 colon, 8.48 µM; in the assay on OVCAR-5 ovarian it was 5.7 µM; in the assay on OVCAR-8 ovarian, 2.31 µM; with PC-3 prostate, 5.65 µM. For the same compound, the GI50 with SK-MEL-2 melanoma is 5.5 µM; with SNB-19 CNS it was 7.87 µM; with TK-10 renal, 1.21 µM; with UACC-62 melanoma, 1.87 µM. Moreover, the TGI with BT-549 breast stood at 8.97 µM; in the assay on HOP-62 NSCLC, 15.1 µM; with KM12 colon, 18.7 µM; with OVCAR-5 ovarian it was 13.3 µM; in the assay on OVCAR-8 ovarian it was 8.88 µM; in the assay with PC-3 prostate it was 12 µM. Also, the TGI is 12.5 µM with SK-MEL-2 melanoma, 17 µM with SNB-19 CNS, 4.53 µM in the assay on TK-10 renal and 8.22 µM in the assay with UACC-62 melanoma.

On to `COc1ccc(-c2nc(-c3cn(C)c4ncccc34)cs2)cc1`, for which the GI50 in the assay with BT-549 breast is 68 µM; in the assay on HOP-62 NSCLC, above 100 µM; in the assay with KM12 colon, 8.01 µM; in the assay with OVCAR-5 ovarian, above 100 µM; with OVCAR-8 ovarian, above 100 µM; in the assay on PC-3 prostate, 18.3 µM. Also, the GI50 is 55.3 µM in the assay on SK-MEL-2 melanoma, above 100 µM in the assay on SNB-19 CNS, above 100 µM in the assay with TK-10 renal and 13 µM with UACC-62 melanoma. Besides, the TGI in the assay on BT-549 breast, in the assay on HOP-62 NSCLC, in the assay on KM12 colon, with OVCAR-5 ovarian, in the assay with OVCAR-8 ovarian and with PC-3 prostate was above 100 µM each time. For the same compound, the TGI with SK-MEL-2 melanoma, with SNB-19 CNS, in the assay on TK-10 renal and in the assay with UACC-62 melanoma was above 100 µM in each case.

`O=C(NOCC1CC1)c1ccc(F)c(F)c1Nc1ccc(I)cc1Cl`: the GI50 with BT-549 breast is 3.39 µM; in the assay with HOP-62 NSCLC it was 2.04 µM; with KM12 colon, 0.649 µM; in the assay on OVCAR-5 ovarian, 0.0764 µM; in the assay with OVCAR-8 ovarian, 2.32 µM; in the assay with PC-3 prostate, 3.03 µM. Further, the GI50 is 0.166 µM in the assay with SK-MEL-2 melanoma, 1.38 µM with SNB-19 CNS, 1.13 µM in the assay on TK-10 renal and 0.064 µM in the assay on UACC-62 melanoma. The TGI was above 100 µM with BT-549 breast; above 100 µM in the assay on HOP-62 NSCLC; 7.34 µM with KM12 colon; 20.6 µM with OVCAR-8 ovarian; 16.5 µM in the assay on PC-3 prostate; 2.05 µM in the assay on SK-MEL-2 melanoma. Further, the TGI in the assay on SNB-19 CNS was determined as 97.3 µM; in the assay with TK-10 renal it was 18.6 µM; with UACC-62 melanoma, 1.41 µM.

In the case of `C=C1C(=O)OC2CC3(CO3)C3C(O)C(O)CC3(C)CC12` (stereo not drawn), the TGI with BT-549 breast was 33.9 µM; in the assay on HOP-62 NSCLC it was above 100 µM; in the assay with KM12 colon, above 100 µM; with OVCAR-5 ovarian, 71.7 µM; in the assay with OVCAR-8 ovarian, 45.3 µM; with PC-3 prostate it was above 100 µM. For the same compound, the TGI was 38.4 µM in the assay with SK-MEL-2 melanoma, above 100 µM in the assay with SNB-19 CNS, above 100 µM in the assay on TK-10 renal and 38 µM with UACC-62 melanoma.

Regarding `O=C1C=Cc2ccccc2/C1=C/c1[nH]c(=O)[nH]c1O`, the GI50 was 6.75 µM in the assay with BT-549 breast; 7.5 µM with HOP-62 NSCLC; 2.99 µM in the assay with KM12 colon; 42.8 µM in the assay with OVCAR-5 ovarian; 9.6 µM in the assay on OVCAR-8 ovarian; 3.61 µM with PC-3 prostate. Further, the GI50 was 2.97 µM with SK-MEL-2 melanoma, 3.49 µM in the assay on SNB-19 CNS, 10.5 µM in the assay with TK-10 renal and 3.45 µM in the assay on UACC-62 melanoma. Moreover, the TGI in the assay with BT-549 breast was 96.3 µM; with HOP-62 NSCLC it was 35 µM; in the assay with KM12 colon, 9.34 µM; with OVCAR-5 ovarian, above 100 µM; in the assay on OVCAR-8 ovarian, 62.5 µM; with PC-3 prostate it was above 100 µM. In addition, the TGI in the assay on SK-MEL-2 melanoma was 8.71 µM; in the assay with SNB-19 CNS, 16.6 µM; in the assay with TK-10 renal, 85.4 µM; with UACC-62 melanoma it was above 100 µM.

(Values after PubChem BioAssay (NCI).)
